Where “and” joins values, the source holds several entries; their conditions need not be identical. Equal entries are not always repeated. Inconclusive results are not listed.
Test system: nude mice, HT29 intrarenal xenograft, tumor weight T/C
Assay: NCI In Vivo Anticancer Drug Screen. Data for tumor model HT29;CX-1 Human Adenocarcinoma (MER+) (intrarenal inoculation) in NU/NU Swiss (nude) mice
Settings: endpoint: mean tumor weight change, higher = larger tumour
Method in brief: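 Readout: treated/vehicle-control ratio of the measured endpoint (tumor size or survival) in transplanted-tumor mice.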

[1] = dose: 300.0 mg/kg/injection, schedule: Q04DX004 (sc), vehicle: suspension in saline
[2] = dose: 600.0 mg/kg/injection, schedule: Q04DX004 (sc), vehicle: suspension in saline
[3] = dose: 1200.0 mg/kg/injection, schedule: Q04DX004 (sc), vehicle: suspension in saline
[4] = dose: 25.0 mg/kg/injection, schedule: Q01DX010 (sc), vehicle: Klucel (hydroxypropylcellulose) (HPC)
[5] = dose: 200.0 mg/kg/injection, schedule: Q04DX004 (sc), vehicle: suspension in saline
[6] = dose: 800.0 mg/kg/injection, schedule: Q04DX004 (sc), vehicle: suspension in saline
[7] = dose: 50.0 mg/kg/injection, schedule: Q04DX004 (sc), vehicle: Klucel (hydroxypropylcellulose) (HPC)
[8] = dose: 100.0 mg/kg/injection, schedule: Q04DX004 (sc), vehicle: Klucel (hydroxypropylcellulose) (HPC)
[9] = dose: 400.0 mg/kg/injection, schedule: Q04DX004 (sc), vehicle: Klucel (hydroxypropylcellulose) (HPC)
[10] = dose: 100.0 mg/kg/injection, schedule: Q01DX010 (sc), vehicle: saline with Tween-80

## C[CH2][Sn]([CH2]C)([CH2]C(=O)OC)[CH2]C(=O)OC
dose: 12.5 mg/kg/injection, schedule: Q04DX004 (sc), vehicle: saline with Tween-80
  T/C: 79 % of control
dose: 25.0 mg/kg/injection, schedule: Q04DX004 (sc), vehicle: saline with Tween-80
  T/C: 83 % of control
dose: 50.0 mg/kg/injection, schedule: Q04DX004 (sc), vehicle: saline with Tween-80
  T/C: 79 % of control

## c1cc[c]([Sn]([NH]c2ncnc3[nH]cnc23)([NH]c2ncnc3[nH]cnc23)[c]2ccccc2)cc1
dose: 150.0 mg/kg/injection, schedule: Q04DX004 (sc), vehicle: suspension in saline
  T/C: 89 % of control
[1]
  T/C: 47 % of control
[2]
  T/C: 28 % of control
[3]
  T/C: 124 % of control

## O=C(CCBr)N1CCN(C(=O)CCBr)CC1
dose: 12.5 mg/kg/injection, schedule: Q01DX010 (sc), vehicle: Klucel (hydroxypropylcellulose) (HPC)
  T/C: 71 % of control
[4]
  T/C: 64 % of control

## N#Cc1cn(C2OC(CO)C(O)C2O)c2ncnc(N)c12 (centres undefined)
dose: 0.13 mg/kg/injection, schedule: Q01DX010 (sc), vehicle: saline
  T/C: 81 % of control
dose: 0.25 mg/kg/injection, schedule: Q01DX010 (sc), vehicle: saline
  T/C: 171 % of control

## COc1cc2c(c(OC)c1OC)-c1ccc(OC)c(=O)cc1[C@@H](NC(C)=O)CC2
dose: 0.5 mg/kg/injection, schedule: Q01DX010 (sc), vehicle: saline
  T/C: 70 % of control

## Cc1noc(N)c1N
dose: 100.0 mg/kg/injection, schedule: Q04DX004 (sc), vehicle: water
  T/C: 200 % of control
dose: 400.0 mg/kg/injection, schedule: Q04DX004 (sc), vehicle: water
  T/C: 98 % of control
dose: 800.0 mg/kg/injection, schedule: Q04DX004 (sc), vehicle: water
  T/C: 200 % of control

## CN(Cc1cnc2nc(N)nc(N)c2n1)c1ccc(C(=O)N[C@@H](CCC(=O)O)C(=O)O)cc1
dose: 0.5 mg/kg/injection, schedule: Q01DX010 (sc), vehicle: sodium bicarbonate
  T/C: 116 % of control
dose: 1.0 mg/kg/injection, schedule: Q01DX010 (sc), vehicle: sodium bicarbonate
  T/C: 41 % of control

## CCCCNC(C)C1(O)Cc2c(O)c3c(c(O)c2C(OC2CC(N)C(O)C(C)O2)C1)C(=O)c1c(OC)cccc1C3=O (centres undefined)
dose: 100.0 mg/kg/injection, schedule: Q01DX010 (sc), vehicle: water
  T/C: 44 % of control

## Nc1ncn(C2OC(CO)C(O)C2O)c(=O)n1 (centres undefined)
dose: 0.19 mg/kg/injection, schedule: Q01DX010 (sc), vehicle: saline
  T/C: 212 % of control
dose: 0.38 mg/kg/injection, schedule: Q01DX010 (sc), vehicle: saline
  T/C: 172 % of control
dose: 0.75 mg/kg/injection, schedule: Q01DX010 (sc), vehicle: saline
  T/C: 96 % of control
dose: 5.0 mg/kg/injection, schedule: Q04DX004 (sc), vehicle: saline
  T/C: 66 % of control
dose: 10.0 mg/kg/injection, schedule: Q04DX004 (sc), vehicle: saline
  T/C: 48 % of control and 49 % of control
dose: 100.0 mg/kg/injection, schedule: Q04DX004 (sc), vehicle: saline
  T/C: 62 % of control
dose: 200.0 mg/kg/injection, schedule: Q04DX004 (sc), vehicle: saline
  T/C: 85 % of control
[5]
  T/C: 98 % of control
[1]
  T/C: 24 % of control
dose: 400.0 mg/kg/injection, schedule: Q04DX004 (sc), vehicle: saline
  T/C: 38 % of control
[2]
  T/C: 79 % of control
dose: 800.0 mg/kg/injection, schedule: Q04DX004 (sc), vehicle: saline
  T/C: 7 % of control
[6]
  T/C: 29 % of control and 30 % of control
[3]
  T/C: 7 % of control
dose: 1600.0 mg/kg/injection, schedule: Q04DX004 (sc), vehicle: suspension in saline
  T/C: 11 % of control

## CNC(=O)OCc1c(COC(=O)NC)c(C)n(-c2ccc(OC)cc2)c1C
[7]
  T/C: 69 % of control
[8]
  T/C: 90 % of control
dose: 200.0 mg/kg/injection, schedule: Q04DX004 (sc), vehicle: Klucel (hydroxypropylcellulose) (HPC)
  T/C: 46 % of control
[9]
  T/C: 36 % of control

## C=C(OP(=O)(OC)OC)Sc1ccccc1C
dose: 100.0 micrograms/kg/injection, schedule: Q04DX004 (sc), vehicle: Klucel (hydroxypropylcellulose) (HPC)
  T/C: 84 % of control
dose: 400.0 micrograms/kg/injection, schedule: Q04DX004 (sc), vehicle: Klucel (hydroxypropylcellulose) (HPC)
  T/C: 95 % of control
dose: 800.0 micrograms/kg/injection, schedule: Q04DX004 (sc), vehicle: Klucel (hydroxypropylcellulose) (HPC)
  T/C: 118 % of control

## COc1ccc2nc3cc(Cl)ccc3c(NCCNCCNCCNc3c4ccc(Cl)cc4nc4ccc(OC)cc34)c2c1
[10]
  T/C: 116 % of control
dose: 400.0 mg/kg/injection, schedule: Q01DX010 (sc), vehicle: saline with Tween-80
  T/C: 124 % of control
dose: 800.0 mg/kg/injection, schedule: Q01DX010 (sc), vehicle: saline with Tween-80
  T/C: 93 % of control

## O=NN(CCCl)C(=O)NCCO
dose: 12.5 mg/kg/injection, schedule: Q04DX004 (sc), vehicle: water
  T/C: 81 % of control

## CC1=NN(c2cccc(S(=O)(=O)O)c2)C(=O)C1N=Nc1cc(Cl)cc(S(=O)(=O)O)c1O.CC1=NN(c2cccc(S(=O)(=O)O)c2)C(=O)C1N=Nc1cc(Cl)cc(S(=O)(=O)O)c1O.[Cr] (centres undefined)
dose: 150.0 mg/kg/injection, schedule: Q04DX004 (sc), vehicle: saline
  T/C: 94 % of control
dose: 300.0 mg/kg/injection, schedule: Q04DX004 (sc), vehicle: saline
  T/C: 121 % of control
dose: 600.0 mg/kg/injection, schedule: Q04DX004 (sc), vehicle: saline
  T/C: 61 % of control

## Cc1cn(C2CC(F)C(CO)O2)c(=O)[nH]c1=O (centres undefined)
dose: 100.0 mg/kg/injection, schedule: Q04DX004 (sc), vehicle: suspension in saline
  T/C: 65 % of control
[5]
  T/C: 60 % of control
dose: 400.0 mg/kg/injection, schedule: Q04DX004 (sc), vehicle: suspension in saline
  T/C: 117 % of control
[6]
  T/C: 74 % of control

## CC(=O)OCc1cc(=O)n(C)c2c3c4c(cc12)c(C)cc(=O)n4CO3
[4]
  T/C: 99 % of control
dose: 50.0 mg/kg/injection, schedule: Q01DX010 (sc), vehicle: Klucel (hydroxypropylcellulose) (HPC)
  T/C: 105 % of control
dose: 100.0 mg/kg/injection, schedule: Q01DX010 (sc), vehicle: Klucel (hydroxypropylcellulose) (HPC)
  T/C: 59 % of control
dose: 200.0 mg/kg/injection, schedule: Q01DX010 (sc), vehicle: Klucel (hydroxypropylcellulose) (HPC)
  T/C: 34 % of control

## COC(=O)CC(N)C(=O)O (centres undefined)
dose: 225.0 mg/kg/injection, schedule: Q04DX004 (sc), vehicle: saline with Tween-80
  T/C: 103 % of control
dose: 450.0 mg/kg/injection, schedule: Q04DX004 (sc), vehicle: saline with Tween-80
  T/C: 81 % of control
dose: 900.0 mg/kg/injection, schedule: Q04DX004 (sc), vehicle: saline with Tween-80
  T/C: 69 % of control
dose: 1800.0 mg/kg/injection, schedule: Q04DX004 (sc), vehicle: saline with Tween-80
  T/C: 35 % of control

## O=CC=O
dose: 50.0 mg/kg/injection, schedule: Q01DX010 (sc), vehicle: saline with Tween-80
  T/C: 64 % of control
[10]
  T/C: 66 % of control
dose: 200.0 mg/kg/injection, schedule: Q01DX010 (sc), vehicle: saline with Tween-80
  T/C: 38 % of control

## O=NN(CCCl)C(=O)NC1CCCCC1
dose: 8.0 mg/kg/injection, schedule: Q01DX010 (sc), vehicle: saline with Tween-80
  T/C: 85 % of control
dose: 8.0 mg/kg/injection, schedule: Q04DX004 (sc), vehicle: carboxymethylcellulose (CMC)
  T/C: 99 % of control
dose: 16.0 mg/kg/injection, schedule: Q01DX010 (sc), vehicle: saline with Tween-80
  T/C: 42 % of control
dose: 16.0 mg/kg/injection, schedule: Q04DX004 (sc), vehicle: carboxymethylcellulose (CMC)
  T/C: 86 % of control
dose: 25.0 mg/kg/injection, schedule: Q04DX004 (sc), vehicle: Klucel (hydroxypropylcellulose) (HPC)
  T/C: 63 % of control
dose: 32.0 mg/kg/injection, schedule: Q01DX010 (sc), vehicle: saline with Tween-80
  T/C: 77 % of control
dose: 32.0 mg/kg/injection, schedule: Q04DX004 (sc), vehicle: carboxymethylcellulose (CMC)
  T/C: 89 % of control
[7]
  T/C: 116 % of control
dose: 64.0 mg/kg/injection, schedule: Q04DX004 (sc), vehicle: carboxymethylcellulose (CMC)
  T/C: 101 % of control

## O=C1CC2(C(=O)N1CN1CCCCC1)c1ccccc1-c1ccccc12
[8]
  T/C: 43 % of control
[9]
  T/C: 69 % of control
dose: 800.0 mg/kg/injection, schedule: Q04DX004 (sc), vehicle: Klucel (hydroxypropylcellulose) (HPC)
  T/C: 70 % of control

Source: PubChem BioAssay AID206 (DTP/NCI, 2004)
